Among the test systems are ACHN renal; CAKI-1 renal; CCRF-CEM leukemia; COLO 205 colon; HCT-116 colon; M14 melanoma; NCI-H522 lung; OVCAR-5 ovarian; SN12C renal; T-47D breast.
Common to all, as to test: NCI anticancer screen, dose series, 48 h

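Protocol summary: plate cells (96-well), add compound at 5 concentrations, incubate 48 h, interpolate endpoints linearly. At the GI50, growth is halved. The concentration for full growth arrest is given as TGI.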

In PubChem BioAssay (NCI) one finds TGI and GI50 data, which are given here for eleven molecules.

`CC(=O)NC(CCCNCc1ccccc1)C(=O)NCc1ccccc1` (configuration not stated): the TGI with ACHN renal, in the test with CAKI-1 renal, in the test on CCRF-CEM leukemia, in the test on COLO 205 colon, with HCT-116 colon and in the test with M14 melanoma was greater than 100 µM in each case. Besides, the TGI with NCI-H522 lung, in the test on OVCAR-5 ovarian and in the test on SN12C renal was greater than 100 µM throughout.

Take `CCOC(=O)C1=C(C)N(Cc2ccccc2)C(C)=C(C(=O)OCC)C1c1ccccc1O`: the TGI was greater than 100 µM in the test with ACHN renal; greater than 100 µM with CAKI-1 renal; 69.5 µM in the test with CCRF-CEM leukemia; 31.4 µM with COLO 205 colon; greater than 100 µM in the test with HCT-116 colon; greater than 100 µM in the test on M14 melanoma. Moreover, the TGI with NCI-H522 lung was 74.5 µM; in the test with OVCAR-5 ovarian, greater than 100 µM; with SN12C renal, greater than 100 µM.

As for `CN(C)S(=O)(=O)c1ccc(NC(=O)COC(=O)c2ccc(S(=O)(=O)N3CCCCC3)cc2)cc1`, the GI50 with ACHN renal, with CAKI-1 renal, in the test with CCRF-CEM leukemia, with COLO 205 colon, in the test with HCT-116 colon and in the test with NCI-H522 lung was greater than 100 µM throughout. Moreover, the GI50 with OVCAR-5 ovarian, with SN12C renal and in the test with T-47D breast was greater than 100 µM in each case. The TGI in the test on ACHN renal, with CAKI-1 renal, with CCRF-CEM leukemia, with COLO 205 colon, in the test on HCT-116 colon and with NCI-H522 lung was greater than 100 µM each time. Further, the TGI in the test on OVCAR-5 ovarian, with SN12C renal and in the test with T-47D breast was greater than 100 µM in each case.

For `CCCN=Cc1cc(Cc2ccc(O)c(C=NCCC)c2)ccc1O`, the TGI in the test on ACHN renal turned out to be 53.4 µM; with CAKI-1 renal, 73.8 µM; with COLO 205 colon it was 34.2 µM; with HCT-116 colon, 7.19 µM; in the test with M14 melanoma it was 7.35 µM; with NCI-H522 lung, 45.1 µM. In addition, the TGI with OVCAR-5 ovarian turned out to be 36.6 µM; with SN12C renal it was 15.3 µM; in the test on T-47D breast it was 6.33 µM.

Regarding `COc1ccc(N2C(C)=C(C#N)C34C(=O)N(c5ccccc5)C(=O)C3=C(O)C=CC24O)cc1` (configuration not stated), the GI50 in the test on ACHN renal was 18.2 µM; in the test on CAKI-1 renal it was 2.65 µM; in the test on CCRF-CEM leukemia it was 3.09 µM; with COLO 205 colon, 10.8 µM; in the test with HCT-116 colon it was 9.73 µM; in the test on M14 melanoma it was 13.6 µM. For the same molecule, the results for the GI50 in the test with OVCAR-5 ovarian, in the test on SN12C renal and in the test with T-47D breast were 18.1 µM, 10 µM and 13 µM, respectively. In addition, the TGI in the test with ACHN renal was determined as 45.6 µM; with CAKI-1 renal, 16.6 µM; in the test on CCRF-CEM leukemia, 15.6 µM; in the test on COLO 205 colon, 23.2 µM; in the test with HCT-116 colon it was 25.5 µM; in the test on M14 melanoma, 38.6 µM. The TGI in the test with OVCAR-5 ovarian came out at 73.8 µM; in the test on SN12C renal, 21.9 µM; with T-47D breast it was 33.8 µM.

Consider `CC(C)(C)OC(=O)C#CC[C@H]1CCCC1/C=C/C(O)=C1/C(=O)NC(CCCNC(=O)OC(C)(C)C)C1=O` (some centres not stated), for which the TGI in the test with ACHN renal is greater than 100 µM; in the test on CAKI-1 renal, greater than 100 µM; in the test with CCRF-CEM leukemia, 88.5 µM; in the test with COLO 205 colon, 33.6 µM; in the test on HCT-116 colon it was 23.9 µM; in the test with M14 melanoma, greater than 100 µM. The TGI in the test with NCI-H522 lung is 40.7 µM; with OVCAR-5 ovarian, greater than 100 µM; with SN12C renal, greater than 100 µM.

Consider `NC(=S)N/N=C(/CC(=O)c1ccccc1)C(=O)Nc1ccc(Cl)c(Cl)c1`, for which the TGI is greater than 100 µM in the test on ACHN renal; greater than 100 µM in the test on CAKI-1 renal; 91.6 µM in the test with CCRF-CEM leukemia; greater than 100 µM in the test with COLO 205 colon; greater than 100 µM in the test on HCT-116 colon; greater than 100 µM in the test on M14 melanoma. Besides, the TGI with NCI-H522 lung is 59.4 µM; with OVCAR-5 ovarian, greater than 100 µM; in the test on SN12C renal, greater than 100 µM.

On to `COC(=O)[C@]12CC[C@@H](C)[C@H](C)[C@@H]1C1=CC[C@@H]3[C@@]4(C)C[C@@H](OC(C)=O)[C@H](O)[C@@](C)(COC(C)=O)[C@@H]4[C@H](O)C[C@@]3(C)[C@]1(C)CC2`, for which the GI50 was 2.83 µM in the test on ACHN renal; 2.82 µM in the test on CAKI-1 renal; 2.54 µM with CCRF-CEM leukemia; 1.63 µM in the test on COLO 205 colon; 1.95 µM in the test on HCT-116 colon; 1.96 µM in the test with M14 melanoma. The GI50 is 1.94 µM in the test on NCI-H522 lung, 2.23 µM in the test on OVCAR-5 ovarian and 2.44 µM in the test with T-47D breast. Besides, the TGI worked out at 9.17 µM in the test with ACHN renal; 10.9 µM in the test on CAKI-1 renal; 6.34 µM with CCRF-CEM leukemia; 3.2 µM with COLO 205 colon; 4.11 µM with HCT-116 colon; 5.09 µM in the test with M14 melanoma. For the same molecule, the values for the TGI in the test with NCI-H522 lung, with OVCAR-5 ovarian and in the test on T-47D breast were 4.33 µM, 7.61 µM and 8.02 µM, respectively.

Turning to `CC(C)(C)C#CC1=C(Br)C(=O)OC1`, the GI50 with ACHN renal was 0.266 µM; with CAKI-1 renal it was 2.38 µM; with CCRF-CEM leukemia, 2.45 µM; in the test on COLO 205 colon, 31.6 µM; in the test on M14 melanoma, 3.61 µM; in the test with NCI-H522 lung, 7.7 µM. In addition, the GI50 in the test on SN12C renal was 6.26 µM; with T-47D breast, 16.5 µM. Moreover, the TGI is 6.95 µM with CAKI-1 renal; greater than 27.7 µM in the test on CCRF-CEM leukemia; greater than 100 µM in the test with COLO 205 colon; 27 µM with M14 melanoma; 22.5 µM in the test on NCI-H522 lung; 0.608 µM with OVCAR-5 ovarian. Besides, the values for the TGI with SN12C renal and with T-47D breast were 17.7 µM and 66.8 µM, respectively.

Take `Nc1cc2cccc[n+]2c2cc(Cl)ccc12`: the GI50 in the test with ACHN renal was 34.6 µM; in the test with CCRF-CEM leukemia it was 3.23 µM; in the test on COLO 205 colon, 11.8 µM; with HCT-116 colon, 30.2 µM; with M14 melanoma it was 19.3 µM; with NCI-H522 lung, 11.8 µM. Also, the values for the GI50 in the test on OVCAR-5 ovarian, with SN12C renal and in the test on T-47D breast were 25.7 µM, 5.56 µM and 6.83 µM, respectively. For the same molecule, the TGI was determined as 35.3 µM in the test with CCRF-CEM leukemia, 47.4 µM in the test with M14 melanoma, 33 µM in the test on NCI-H522 lung and 35.4 µM with SN12C renal.

Turning to `CCCCOc1ccc(NC(N)=Nc2ccc(Cl)cc2)cc1`, the TGI was 12.7 µM in the test on ACHN renal; greater than 35.7 µM in the test with CCRF-CEM leukemia; 0.26 µM in the test with COLO 205 colon; 12.4 µM with HCT-116 colon; 11.6 µM in the test on M14 melanoma; 16.5 µM in the test on NCI-H522 lung. Moreover, the TGI in the test with OVCAR-5 ovarian was found to be 19.9 µM; with SN12C renal, 15.9 µM; with T-47D breast, 18.9 µM.
